Source: patent US20230124095A1 (AMORPHICAL LTD., priority 2020, published 2023)

System: Cathepsin B
Experiment: Cathepsin B activity in lysate of LNCaP clone FGC cells
Assay type: cell-based, human
Details: 4 passages in supplemented medium

## [Ca+2].[Cl-].[Cl-] [CaCl2, calcium chloride]
  reduction of Cathepsin B activity compared to untreated control: 16%
